Test results as given in US5750562A (priority 1995, dated 1998).

Legend:
A549 (human NSCLC) = test: Cytotoxicity, A549 (human NSCLC); assay type: cell-based; settings: exposition time 72 h, RPMI 1640 + 20 mM HEPES + 2 mM L-glutamine
Experimental: (§1) IC50 s of compounds 10, 11and paclitaxel on 6 human
(§2) Standard conditions: basal medium RPMI 1640 + 20 mM HEPES + 2 mM

A121 (human ovarian) = test: Cytotoxicity, A121 (human ovarian); assay type: cell-based; settings: exposition time 72 h, RPMI 1640 + 20 mM HEPES + 2 mM L-glutamine
Experimental: as §1, §2

MCF7 (human breast) = test: Cytotoxicity, MCF7 (human breast); assay type: cell-based; settings: exposition time 72 h, RPMI 1640 + 20 mM HEPES + 2 mM L-glutamine
Experimental: as §1, §2

L1210 (murine leukemia) = test: Cytotoxicity, L1210 (murine leukemia); assay type: cell-based; settings: Mus musculus, exposition time 48 h, RPMI 1640 + 20 mM HEPES + 2 mM L-glutamine
tumours = test: Anti-tumoral activity (general statement); settings: in words, among the compounds of formula 1
HT-29 (human colon) = test: Cytotoxicity, HT-29 (human colon); assay type: cell-based; settings: exposition time 72 h, RPMI 1640 + 20 mM HEPES + 2 mM L-glutamine
Experimental: as §1, §2

human tumours = settings: background art, cited from earlier work
MCF7-ADR (resistant) = test: cells; assay type: cell-based; settings: Homo sapiens, NCI/ADR-RES, 72 h
Cardiotoxic activity = settings: in words, compared with taxol and its known derivatives

SMILES: CC(=O)O[C@@]12CO[C@@H]1C[C@H](O)[C@@]1(C)C(=O)C(=O)C3=C(C)[C@@H](OC(=O)[C@H](O)[C@H](CC(C)C)NC(=O)OC(C)(C)C)C[C@@](O)([C@@H](OC(=O)c4ccccc4)[C@H]21)C3(C)C [Compound 10, 13-[(2R,3S)-3-ter-butoxycarbonylamino-2-hydroxy3-isobutyl-propanoyl]-10-deacetyl-10-dehydro-baccatine III]
- IC50 (A549 (human NSCLC)): 1.9 ± 0.3 nM
- IC50 (A121 (human ovarian)): 0.8 ± 0.3 nM
- IC50 (MCF7 (human breast)): 1.2 ± 0.2 nM
- IC50 (L1210 (murine leukemia)): 0.6 ± 0.1 nM
- activity (tumours): particularly active
- IC50 (HT-29 (human colon)): 0.4 ± 0.1 nM

SMILES: CCCCCC(=O)N[C@@H](CC(C)C)[C@@H](O)C(=O)O[C@@H]1C(C)=C2C(=O)C(=O)[C@@]3(C)[C@H]([C@H](OC(=O)c4ccccc4)[C@@]4(OC(=O)O[C@@H]14)C2(C)C)[C@]1(OC(C)=O)CO[C@@H]1C[C@@H]3O [Compound 12, 13-[(2R,3S)-3-caproylamino-2-hydroxy-3-isobutyl-propanoyl]-10-dehydro-10-deacetyl 14β-hydroxy-baccatine III 1,14-carbonate]
- activity (tumours): particularly active

SMILES: CC(=O)O[C@@]12CO[C@@H]1C[C@H](O)[C@@]1(C)C(=O)C(=O)C3=C(C)[C@@H](OC(=O)[C@H](O)[C@H](CC(C)C)NC(=O)OC(C)(C)C)[C@@H]4OC(=O)O[C@]4([C@@H](OC(=O)c4ccccc4)[C@H]21)C3(C)C [Compound 11, 13=[(2R,3S)-3-ter-butoxycarbonylamino-2-hydroxy-3-isobutyl-propanoyl]-10-dehydro-10-deacetyl-14β-hydroxy-baccatine III 1,14-carbonate]
- IC50 (A549 (human NSCLC)): 2.1 ± 0.3 nM
- IC50 (A121 (human ovarian)): 1.6 ± 0.2 nM
- IC50 (MCF7 (human breast)): 0.8 ± 0.2 nM
- IC50 (L1210 (murine leukemia)): 2 ± 0.1 nM
- activity (tumours): particularly active
- IC50 (HT-29 (human colon)): 0.6 ± 0.4 nM

SMILES: CC(=O)O[C@H]1C(=O)[C@@]2(C)[C@H]([C@H](OC(=O)c3ccccc3)[C@]3(O)C[C@H](OC(=O)[C@H](O)[C@@H](NC(=O)c4ccccc4)c4ccccc4)C(C)=C1C3(C)C)[C@]1(OC(C)=O)CO[C@@H]1C[C@@H]2O [Paclitaxel, reference compound]
- IC50 (A549 (human NSCLC)): 5.4 ± 0.5 nM
- IC50 (A121 (human ovarian)): 3.7 ± 0.3 nM
- IC50 (MCF7 (human breast)): 4.3 ± 0.1 nM
- anticancerogenic activity (human tumours; different forms of human tumours): anticancerogenic activity on different forms of human tumours
- resistance induction (human tumours): induces resistance quickly
- side-effects in clinical use (human tumours): serious side-effects
- IC50 (L1210 (murine leukemia)): 7 ± 3 nM
- IC50 (MCF7-ADR (resistant)): 395 ± 8.7 nM
- IC50 (HT-29 (human colon)): 6 ± 0.6 nM
- cardiotoxic activity (Cardiotoxic activity): contrary to taxol
